The supplement of paper PMC10307832

How the values were obtained:
Experiment in all cases: relative viability (nuclei count vs DMSO), 5 days (fraction); higher = more cells survive
[1] = tested on: 201T
In short: (§1)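 Dosing by pin tool came one day after lung cancer cell lines were seeded in 1536-well plates, using either one drug or a fixed anchor-drug dose plus five library-drug doses (not always all listed) in √10 steps. After 5 days, nuclei were counted on 4× images. Relative viability is treated-well nuclei count divided by vehicle-well nuclei count, and values are medians of duplicate plates.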

[2] = tested on: SW 1573
In short: as §1

[3] = tested on: NCI-H460
In short: as §1

[4] = tested on: NCI-H727
In short: as §1

[5] = tested on: NCI-H1793
In short: as §1

[6] = tested on: HCC-44
In short: as §1

[7] = tested on: NCI-H2228
In short: as §1

[8] = tested on: LCLC-97TM1
In short: as §1

[9] = tested on: PC-14
In short: as §1

[10] = tested on: NCI-H23
In short: as §1

[11] = tested on: COR-L23; conditions: first compound 0.005 µM
In short: as §1

## COc1cc2nccc(Oc3ccc(NC(=O)Nc4cc(C)on4)c(Cl)c3)c2cc1OC [Tivozanib] + C[C@]1(O)C[C@@H](c2nc(-c3ccc4ccc(-c5ccccc5)nc4c3)c3c(N)nccn32)C1 [Linsitinib] (partner 1 µM)
[1]; first compound 0.005 µM
  relative viability: 1.1
[1]; first compound 0.01581 µM
  relative viability: 0.984
[1]; first compound 0.05 µM
  relative viability: 1.06
[1]; first compound 0.1581 µM
  relative viability: 0.937
[1]; first compound 0.5 µM
  relative viability: 1.02
[2]; first compound 0.005 µM
  relative viability: 0.896
[2]; first compound 0.01581 µM
  relative viability: 0.826
[2]; first compound 0.05 µM
  relative viability: 0.921
[2]; first compound 0.1581 µM
  relative viability: 0.819
[2]; first compound 0.5 µM
  relative viability: 0.86
[3]; first compound 0.005 µM
  relative viability: 0.783
[3]; first compound 0.01581 µM
  relative viability: 0.806
[3]; first compound 0.05 µM
  relative viability: 0.858
[3]; first compound 0.1581 µM
  relative viability: 0.871
[3]; first compound 0.5 µM
  relative viability: 0.733
[4]; first compound 0.005 µM
  relative viability: 0.304
[4]; first compound 0.01581 µM
  relative viability: 0.256
[4]; first compound 0.05 µM
  relative viability: 0.244
[4]; first compound 0.5 µM
  relative viability: 0.357
[5]; first compound 0.005 µM
  relative viability: 0.778
[5]; first compound 0.01581 µM
  relative viability: 0.954
[5]; first compound 0.05 µM
  relative viability: 0.774
[5]; first compound 0.5 µM
  relative viability: 1.19
[6]; first compound 0.005 µM
  relative viability: 0.66
[6]; first compound 0.01581 µM
  relative viability: 0.687
[6]; first compound 0.05 µM
  relative viability: 0.641
[6]; first compound 0.1581 µM
  relative viability: 0.679
[6]; first compound 0.5 µM
  relative viability: 0.685
[7]; first compound 0.005 µM
  relative viability: 0.504
[7]; first compound 0.01581 µM
  relative viability: 0.683
[7]; first compound 0.05 µM
  relative viability: 0.697
[7]; first compound 0.1581 µM
  relative viability: 0.569
[7]; first compound 0.5 µM
  relative viability: 0.868
[8]; first compound 0.005 µM
  relative viability: 0.154
[8]; first compound 0.01581 µM
  relative viability: 0.179
[8]; first compound 0.1581 µM
  relative viability: 0.187
[8]; first compound 0.5 µM
  relative viability: 0.178
[9]; first compound 0.005 µM
  relative viability: 0.939
[9]; first compound 0.01581 µM
  relative viability: 0.957
[9]; first compound 0.05 µM
  relative viability: 1.06
[9]; first compound 0.1581 µM
  relative viability: 1.01
[9]; first compound 0.5 µM
  relative viability: 1.01
[10]; first compound 0.005 µM
  relative viability: 0.521
[10]; first compound 0.01581 µM
  relative viability: 0.534
[10]; first compound 0.05 µM
  relative viability: 0.64
[10]; first compound 0.1581 µM
  relative viability: 0.317
[10]; first compound 0.5 µM
  relative viability: 0.534
[11]
  relative viability: 0.848
